Experimental data: patent US20070087364A1, “In vitro erythroid micronucleus assay for genotoxicity” (Massachusetts Institute of Technology, priority 2005, published 2007)
“Also recorded” adds a separate entry of the source.

Legend:
[1] = test system: Lin^− bone marrow cells; test: erythropoietic growth of Lin− bone marrow quantified by flow cytometry (Ter-119/CD71) and total cell counts; format: cell-based, mouse; conditions: for effect on erythropoietic growth (erythropoietic flow cytometry), in words: preliminary flow cytometric studies, Lin− BM from C57BL/6J mice
Protocol: FIG. 13 is a bar graph of data obtained from experiments performed to determined the effect of Epo on the erythropoietic growth of Lin− bone marrow cells. Lin^− bone marrow cells were cultured for 1 day in media containing serum along with Epo at variable concentrations. Epo was removed from the culture media at the end of 1 day, and culture was continued for 2 more days in media with serum. At the end of the third day, the resulting populations were removed from culture and erythropoietic growth was quantified as the product of total cell counts and flow cytometric region fractions. Specifically, erythroid-specific growth at two late stages was calculated for each culture by taking the product of the total cell count and the fraction of the population found to have the indicated surface phenotype (determined by flow cytometry). These erythroid growth values were then normalized to the number of Lin^− cells seeded.
Studies were conducted by stimulating Lin^− mouse BM with specifically defined media formulations for 24 hours before replacing the medium to a minimal erythroid-differentiation medium (EDM) and culturing for an additional 2-3 days. This EDM contains 20% FBS, 2 mM L-glutamine, and 0.1 mM β-mercaptoethanol in IMDM, whereas the “Day 1” medium consists of IMDM with 15% FBS, 2 mM L-glutamine, 0.1 mM β-mercaptoethanol, 1% BSA, 200 μg holo-transferrin, 10 μg/mL insulin as well as further supplements (some specific media formulations listed in Table I). Upon harvest, the number of late-stage erythroid cells and enucleated erythrocytes produced over the culture period was analyzed. […] Although the most relevant endpoint for these cultures is PCEs-produced per primary BM cell, the number of R4 and R5 cells in the post-culture population, as measured by flow ctyometry, provided a reasonable metric of PCE content for early screening studies. More rigorous quantification, via histological analysis, was then employed in a more detailed analysis to generate FIGS. 11, 12, 14 and 16.
As shown above, short-term erythropoietic culture can be used to detect genotoxic exposure. Quantitative studies on the erythropoietic growth of Lin^− BM after stimulus with physiologic erythropoietic factors were used to further improve the culture methodology and thus increase the potential throughput of the in vitro erythroid MN assay described here. Initially, flow cytometry was used to define late-erythroid cells by subdividing the Ter-119^+ population based on CD71 expression (regions shown in FIG. 4) to estimate the fraction of a culture that acquired late-erythroid surface markers. The products of flow cytometric region statistics and total cell counts were calculated and then normalized to input cell numbers to quantify erythropoietic growth in a culture.
Table II. in vitro erythroid growth is modulated by physiologic erythropoietic stimuli. The culture conditions listed on the left-hand side of the table specify the environment in which a growth measurement was made. All soluble growth factors used in these experiments were removed from culture after 1 day. An X in this first section of the table indicates the variable parameter found to have a significant erythropoietic growth-effect. The measured effect of that parameter on erythropoietic growth is then given on the right-hand side of the table. In this right-hand section of the table, the first item listed is the defining surface phenotype of the erythropoietic population. […] Finally, the level of significance (P value) is given. Note that the first 4 entries to this table were taken from FIG. 13; other entries were obtained from similar figures. P values were determined by the two-tailed t test, except for the 3 italicized P values, which were determined using the one-tailed t test.

[2] = test system: Lin^− bone marrow cells; test: PCE growth of Lin− bone marrow by acridine orange histology, fractional-factorial design with regression; format: cell-based, mouse; conditions: for effect on PCE production / erythropoietic growth, statistical analysis of FIG. 12: primary and secondary effects, untreated cultures
Protocol: (FIG. 14A) Lin^− bone marrow cells were cultured for 1 day in media containing serum and various combinations of soluble growth factors as listed on the abscissa; these specific 6-factor combinations constitute an orthogonal fractional-factorial design (also represented in Table 1). After 1 day, all soluble erythropoietic growth factors were removed and the cells were cultured for either 2 or 3 additional days in medium with serum. At harvest, the cells were removed from culture and late erythropoietic growth was quantified. For each culture, PCE numbers were calculated by taking the product of the total cell count and the PCE fraction of the population as determined by differential cell counting after staining with acridine orange (>2000 cells scored per culture). Growth calculations were normalized to input cell numbers and are presented as the mean of 3 independent cultures +/− the standard deviation. (FIG. 14B) Culture methods that yielded similar populations at harvest were grouped into subsets (α, β, γ, and δ); growth characteristics for these subsets were quantified and representative micrographs were acquired. […] Cultures exposed to SCF but not Epo (subset γ) expanded approximately 2.5-fold in total cell numbers, but again contained less than 3% PCEs. Cultures exposed to both Epo and SCF (subset β) expanded approximately 13-fold in total cell numbers and yielded populations in which approximately 31% of all cells are PCEs. Finally, cultures exposed to both Epo and Dex but not SCF (subset δ) expanded approximately 4-fold while producing populations in which approximately 51% of all cells are PCEs. Growth calculations are presented as the mean of all cultures in a subset ± the standard deviation. Scale bars: 20 μm.
Table I is an experimental design chart that provides the specific details of the experimental conditions that were examined to generate FIGS. 11, 12, 14 and 16. Specifically, this experimental design is a two-level, minimum-aberration, fractional-factorial design of resolution IV (a 2IV^6-2 minimum-aberration design). The full-factorial design was not performed because an experiment of this size (2^6 cultures for each biological singlet) was logisitically infeasible. This experiment was designed in order to estimate all the main (primary) interactions between the culture response (PCEs produced) and the individual parameters included in the design. In addition, many of the secondary interactions (between the culture response and various parameter-pairs) were estimable by conducting this design (see FIGS. 12 and 16), although some of these secondary interactions were confounded with other secondary interactions. Each condition listed in the design table was tested in biological triplicate, and each triplicate set was cultured under three different atmospheric conditions, to yield a total of nine culture wells per listed condition.
Furthermore, some variability between various Lin^− BM isolations was observed over the course of preliminary flow cytometric studies. Therefore, a definitive study was conducted that used aliquots of a large, well-mixed Lin^− population that was isolated from the combined BM of 15 mice. In this study, flow cytometry was replaced by histological analysis to provide more rigorous quantification of a population's PCE content. This study was designed to estimate the relative stimulatory effect of various, previously-identified erythroid growth factors on culture performance. Specifically a minimum-aberration, fractional-factorial experimental design (a 2IV^6-2 minimum-aberration design) was conducted to estimate all the main (primary) interactions between the culture response, which was PCEs produced (as assessed by histology), and the individual parameters included in the design (see Table I, and FIGS. 11, 12, 14 and 16). […]

[3] = complete multi-linear regression model (n3=27), parameters scaled 0 to 1
[4] = reduced multi-linear regression model (n3=17), FIG. 16

C[C@@H]1C[C@H]2[C@@H]3CCC4=CC(=O)C=C[C@]4(C)[C@@]3(F)[C@@H](O)C[C@]2(C)[C@@]1(O)C(=O)CO [Dex, Dexamethasone, reference compound]
Avg Growth +/− SD ([1]; [Dex] = 1 μM, Ter-119+ CD71+, Epo 5 U/mL, SCF 0, 72 h, CO2 0.5%, 20% O2, Fn 2, Ins 10, IGF-I 10 ng/mL): 0.278 +/− 0.102 per Lin^− cell seeded | Avg Growth +/− SD ([1]; [Dex] = 1 μM, Ter-119+ CD71−, Epo 5 U/mL, SCF 0, 72 h, CO2 0.5%, 20% O2, Fn 2, Ins 10, IGF-I 0): 0.016 +/− 0.006 per Lin^− cell seeded | Avg Growth +/− SD ([1]; [Dex] = 10 μM, Ter-119+ CD71−, Epo 5 U/mL, SCF 0, 72 h, CO2 0.5%, 20% O2, Fn 2, Ins 10, IGF-I 0): 0.028 +/− 0.016 per Lin^− cell seeded | Scaled Estimate (model parameter, PCE growth) [2, 3]: −0.298 | Scaled Estimate (model parameter, PCE growth) [2, 4]: −0.333

Epo: erythropoietin (Amgen), essential component of the erythropoietic media formulation
Avg Growth +/− SD ([1]; [Epo] = 2 U/mL (low-growth comparison), Ter-119+ CD71−, SCF 0, 72 h, 5% CO2, 20% O2, Fn 2, Dex 0, Ins 10, IGF-I 0): 0.141 +/− 0.019 per Lin^− cell seeded | Avg Growth +/− SD ([1]; [Epo] = 5 U/mL, Ter-119+ CD71−, SCF 0, 72 h, 5% CO2, 20% O2, Fn 2 μg/sq cm, Dex 0, Ins 10 μg/mL, IGF-I 0): 0.307 +/− 0.022 per Lin^− cell seeded | Avg Growth +/− SD ([1]; [Epo] = 10 U/mL, Ter-119+ CD71−, SCF 0, 72 h, 5% CO2, 20% O2, Fn 2, Dex 0, Ins 10, IGF-I 0): 0.380 +/− 0.050 per Lin^− cell seeded | Avg Growth +/− SD ([1]; [Epo] = 50 U/mL, Ter-119+ CD71−, SCF 0, 72 h, 5% CO2, 20% O2, Fn 2, Dex 0, Ins 10, IGF-I 0): 0.312 +/− 0.030 per Lin^− cell seeded | Avg Growth +/− SD ([1]; [Epo] = 500 U/mL, Ter-119+ CD71−, SCF 0, 72 h, 5% CO2, 20% O2, Fn 2, Dex 0, Ins 10, IGF-I 0): 0.314 +/− 0.019 per Lin^− cell seeded | level at which the erythropoietic stimulatory effect reached a maximum ([1]; cultured Lin− BM, Epo present for first day): approximately 10 U/mL | relative size of growth effects by multi-linear regression, in words ([2]; FIG. 16): largest eyrthropoietic growth effect | Scaled Estimate (model parameter, PCE growth) [2, 3]: 3.136 | effect on PCE production / erythropoietic growth, statistical analysis of FIG. 12 [2]: major factors influencing erythropoietic growth; also recorded: the largest, and most statistically-significant, effect | Scaled Estimate (model parameter, PCE growth) [2, 4]: 3.130

IGF-I: Insulin-like Growth Factor I (R&D systems)
effect on erythropoietic growth (erythropoietic flow cytometry), in words [1]: had an effect on erythroid cell numbers | Scaled Estimate (model parameter, PCE growth) [2, 3]: −0.231 | Scaled Estimate (model parameter, PCE growth) [2, 4]: −0.200

SCF: stem cell factor (R&D systems), soluble erythropoietic growth factor
Avg Growth +/− SD ([1]; [SCF] = 1 ng/mL, Ter-119+ CD71+, Epo 5 U/mL, 72 h, 5% CO2, 20% O2, Fn 2, Ins 10): 0.897 +/− 0.053 per Lin^− cell seeded | Avg Growth +/− SD ([1]; [SCF] = 1 ng/mL, Ter-119+ CD71−, Epo 5 U/mL, 72 h, 5% CO2, 20% O2, Fn 2, Ins 10): 0.275 +/− 0.026 per Lin^− cell seeded | Avg Growth +/− SD ([1]; [SCF] = 1 ng/mL, Ter-119+ CD71−, Epo 5 U/mL, 96 h, 5% CO2, 20% O2, Fn 2, Ins 10): 0.372 +/− 0.052 per Lin^− cell seeded | Avg Growth +/− SD ([1]; [SCF] = 10 ng/mL, Ter-119+ CD71+, Epo 3.5 U/mL, 72 h, 5% CO2, 20% O2, Fn 2, Ins 10): 1.512 +/− 0.100 per Lin^− cell seeded | Avg Growth +/− SD ([1]; [SCF] = 10 ng/mL, Ter-119+ CD71+, Epo 5 U/mL, 72 h, 5% CO2, 20% O2, Fn 2, Ins 10): 1.448 +/− 0.155 per Lin^− cell seeded | Avg Growth +/− SD ([1]; [SCF] = 10 ng/mL, Ter-119+ CD71−, Epo 3.5 U/mL, 72 h, 5% CO2, 20% O2, Fn 2, Ins 10): 0.202 +/− 0.023 per Lin^− cell seeded | Avg Growth +/− SD ([1]; [SCF] = 10 ng/mL, Ter-119+ CD71−, Epo 5 U/mL, 96 h, 5% CO2, 20% O2, Fn 2, Ins 10): 0.608 +/− 0.081 per Lin^− cell seeded | Avg Growth +/− SD ([1]; [SCF] = 100 ng/mL, Ter-119+ CD71+, Epo 5 U/mL, 72 h, 5% CO2, 20% O2, Fn 2, Ins 10): 1.929 +/− 0.154 per Lin^− cell seeded | Avg Growth +/− SD ([1]; [SCF] = 100 ng/mL, Ter-119+ CD71−, Epo 5 U/mL, 72 h, 5% CO2, 20% O2, Fn 2, Ins 10): 0.369 +/− 0.041 per Lin^− cell seeded | effect on erythropoietic growth (erythropoietic flow cytometry), in words [1]: did induce increasing erythropoietic growth up to the maximum concentration tested | Scaled Estimate (model parameter, PCE growth) [2, 3]: 0.166 | PCEs among all cells of the harvested population ([2]; growth factors present for 1 day, then 2 or 3 additional days, acridine orange differential counts (FIG. 14B)): less than 3% | expansion in total cell numbers ([2]; growth factors present for 1 day, then 2 or 3 additional days, mean of all cultures in a subset (FIG. 14B)): approximately 2.5 fold | effect on PCE production / erythropoietic growth, statistical analysis of FIG. 12 [2]: major factors influencing erythropoietic growth; also recorded: next largest effects | Scaled Estimate (model parameter, PCE growth) [2, 4]: 0.138

Ins: recombinant human insulin (Sigma)
Avg Growth +/− SD ([1]; [Ins] = 10 μg/mL, Ter-119+ CD71+, Epo 5 U/mL, SCF 0, 72 h, 5% CO2, 20% O2, Fn 0): 1.743 +/− 0.107 per Lin^− cell seeded | Avg Growth +/− SD ([1]; [Ins] = 10 μg/mL, Ter-119+ CD71−, Epo 5 U/mL, SCF 0, 72 h, 5% CO2, 20% O2, Fn 0): 0.382 +/− 0.008 per Lin^− cell seeded | Avg Growth +/− SD ([1]; [Ins] = 100 μg/mL, Ter-119+ CD71+, Epo 5 U/mL, SCF 0, 72 h, 5% CO2, 20% O2, Fn 0): 2.096 +/− 0.121 per Lin^− cell seeded | Avg Growth +/− SD ([1]; [Ins] = 100 μg/mL, Ter-119+ CD71−, Epo 5 U/mL, SCF 0, 72 h, 5% CO2, 20% O2, Fn 0): 0.427 +/− 0.015 per Lin^− cell seeded
